Experimental data as given in patent US10369138B2, “Monobactam organic compounds for the treatment of bacterial infections” (Novartis AG, priority 2014, dated 2019).
In brackets after ≈: the same amount, converted by molar mass.

Experiments:
Assay type in all cases: cell-based
[1] = tested on: E. coli NB27273-CDY0030 (SHV12); assay: MIC by broth microdilution, isogenic E. coli strain expressing SHV12; conditions: Escherichia coli, read-out: Strain 3 MIC
Experimental: Bacterial isolates were cultivated from −70° C. frozen stocks by two consecutive overnight passages at 35° C. in ambient air on 5% blood agar (Remel, Lenexa, Kans.). Quality control and P. aeruginosa ATCC 27853) is from the American Type Culture Collection (ATCC; Rockville, Md.) and PAO1 was received from Dr. K. Poole.
Strain NB27273 (BW25113 pspB::Km^r) was obtained from the Keio transposon insertion collection. The strain has the pspB gene replaced by a kanamycin resistance marker (BW25113 pspB::Km^r). This strain was cured of the transposon in pspB via FLP recombinase using published methodology. The resulting strain, BW25113 pspB, was used as a host for multicopy vectors expressing key β-lactamases. Multicopy plasmids directing constitutive expression of β-lactamases were established as follows: Synthetic, codon optimized genes encoding E. coli KPC2 and SHV12 β-lactamases were made by DNA2.0 (Palo Alto, Calif.). Each of the synthetic fragments were designed to contain NotI and NcoI restriction sites at their termini, allowing ligation into a NotI/NcoI digested pET28a(+) derivative for protein expression. […] The codon optimized nucleotide sequences and relevant primer recognition information is shown below:
The PCR products were then digested with XhoI and EcoRI and ligated into similarly digested plasmid pAH63-pstS(BlaP). Plasmid pAH63-pstS(BlaP) is a derivative of plasmid pAH63 (J Bacteriol: 183(21): 6384-6393) made by cloning the TEM-1 (bla) promoter and signal peptide encoding region from plasmid pBAD (J Bacteriol. 1995 July 177(14):4121-30) into plasmid pAH63. This fragment was PCR amplified from pBAD using primer pair E192 (ttcaCTGCAGtgaacgttgcgaagcaacggC) (SEQ ID NO:13) and E194 (TCGAggatcctcgagagcaaaaacaggaaggcaaaatgccg) (SEQ ID NO:14), digested with PstI and BamHI and inserted into similarly digested plasmid pAH63. Therefore, expression of β-lactamases from pAH63-pstS(BlaP) based constructs is constitutive and the signal sequence is provided to direct these proteins to the periplasm. […] To accomplish this, the inserts encompassing the β-lactamase genes, with the associated TEM promoter and signal sequences, were PCR amplified from their corresponding vectors using primer E269 (ccgTCTAGAcggatggcctttttgcgtttc) (SEQ ID NO:15) and E202 (aatcGAATTCttactgaccattaacgcccaagc) (SEQ ID NO:16) for the KPC2 construct and E204 (aatcGAATTCttaacgctgccagtgctcaatc) (SEQ ID NO:17) for the SHV12 construct. These fragments were then digested with XbaI and EcoRI, and each was inserted into pBAD18-kan that had been digested with the same enzymes to generate a pair of multicopy vectors expressing KPC2 and SHV12 respectively. These vectors were transformed into BW25113 pspB to generate strains NB27273-CDY0033 (expressing KPC2) and NB27273-CDY0030 (expressing SHV12). The pBAD18-kan vector also contains the TEM promoter region and signal sequence, (but lacks any intact β-lactamase genes) and was transformed into BW25113 pspB using standard protocols to generate the control strain NB27273-CDY0026. […] Susceptibility Testing
Minimal Inhibitory Concentrations (MICs) were determined by the broth microdilution method in accordance with Clinical and Laboratories Institute (CLSI) guidelines. In brief, fresh overnight bacterial cultures were suspended in sterile saline, and adjusted to a 0.5 McFarland turbidity standard. Bacterial suspensions were then diluted in cation adjusted Mueller-Hinton Broth (MHB II; BBL) to yield a final inoculum of approximately 5×10^5 colony-forming units (CFU)/mL. A master plate of antibiotics was prepared at a concentration equivalent to hundred-fold the highest desired final concentration in 100% dimethyl sulfoxide (DMSO). The master antibiotic plate was then diluted by serial twofold dilution with a multichannel pipette. The resulting dilution series of compounds were diluted 1:10 with sterile water leading to a 10% DMSO final concentration.

E. coli containing KPC-2 = assay: MIC by broth microdilution, E. coli containing KPC-2 (Ec KPC2 Iso); conditions: Escherichia coli, read-out: Ec KPC2 Iso (MIC), E. coli containing KPC-2 (carbapenemase from Klebsiella pneumoniae)
Procedure, shortened: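 Host E. coli BW25113 pspB carrying multicopy pBAD18-kan plasmid with constitutive TEM-promoter KPC-2 expression (periplasmic signal sequence); broth microdilution per CLSI in cation-adjusted Mueller-Hinton broth, inoculum ~5×10^5 CFU/mL, compounds twofold serially diluted from DMSO masters (10% DMSO in dilution series added).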

E. coli strain 25922 = assay: MIC by broth microdilution, E. coli strain 25922; conditions: Escherichia coli, 25922, E. coli strain 25922; read-out: Ec 25922 (MIC)
Procedure, shortened: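 CLSI broth microdilution in cation-adjusted Mueller-Hinton broth, inoculum about 5×10^5 CFU/mL, 10% DMSO from the diluted series, 20 h at 35-37° C. MIC is the lowest concentration preventing visible growth, read by eye and at 600 nm.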

| SMILES | MIC [1] | MIC (E. coli containing KPC-2) | MIC (E. coli strain 25922) |
| --- | --- | --- | --- |
| C[C@H]1[C@H](NC(=O)/C(=N\OC(C)(C)C(=O)O)c2csc(N)n2)C(=O)N1S(=O)(=O)O [compound 1, reference compound] | > 32 µg/mL | – | – |
| CNCCCNCc1cnn(C[C@@H]2[C@H](NC(=O)/C(=N\OC3(C(=O)O)CC3)c3csc(N)n3)C(=O)N2S(=O)(=O)O)n1 [Example 116, 1-(((Z)-(1-(2-aminothiazol-4-yl)-2-(((2R,3S)-2-((4-(((3-(methylamino)propyl)amino)methyl)-2H-1,2,3-triazol-2-yl)methyl)-4-oxo-1-sulfoazetidin-3-yl)amino)-2-oxoethylidene)amino)oxy)cyclopropanecarboxylic acid] | – | 0.125 µg/mL (≈ 0.208 µM) | 0.25 µg/mL (≈ 0.416 µM) |
| N=C(NCc1cnn(C[C@@H]2[C@H](NC(=O)/C(=N\OC3(C(=O)O)CC3)c3csc(N)n3)C(=O)N2S(=O)(=O)O)n1)NC1CCNCC1 [Example 128, 1-(((Z)-(1-(2-aminothiazol-4-yl)-2-oxo-2-(((3S,4R)-2-oxo-4-((4-((3-(piperidin-4-yl)guanidino)methyl)-2H-1,2,3-triazol-2-yl)methyl)-1-sulfoazetidin-3-yl)amino)ethylidene)amino)oxy)cyclopropanecarboxylic acid] | – | 1 µg/mL (≈ 1.53 µM) | 0.5 µg/mL (≈ 0.764 µM) |
| CC(C)(O/N=C(\C(=O)N[C@@H]1C(=O)N(S(=O)(=O)O)[C@@H]1CN1CC[C@@H](N)C1=O)c1csc(N)n1)C(=O)O [Example 86, 2-(((Z)-(2-(((2R,3S)-2-(((R)-3-amino-2-oxopyrrolidin-1-yl)methyl)-4-oxo-1-sulfoazetidin-3-yl)amino)-1-(2-aminothiazol-4-yl)-2-oxoethylidene)amino)oxy)-2-methylpropanoic acid] | – | 1 µg/mL (≈ 1.87 µM) | 1 µg/mL (≈ 1.87 µM) |
| NCCOC(=O)NCc1cnn(C[C@@H]2[C@H](NC(=O)/C(=N\OC3(C(=O)O)CC3)c3csc(N)n3)C(=O)N2S(=O)(=O)O)n1 [Example 133, 1-(((Z)-(2-(((2R,3S)-2-((4-((((2-aminoethoxy)carbonyl)amino)methyl)-2H-1,2,3-triazol-2-yl)methyl)-4-oxo-1-sulfoazetidin-3-yl)amino)-1-(2-aminothiazol-4-yl)-2-oxoethylidene)amino)oxy)cyclopropanecarboxylic acid] | – | 0.5 µg/mL (≈ 0.811 µM) | 1 µg/mL (≈ 1.62 µM) |
| CC(C)(O/N=C(\C(=O)N[C@@H]1C(=O)N(S(=O)(=O)O)[C@@H]1Cn1nnc(CNC(=N)N)n1)c1csc(N)n1)C(=O)O [Example 5, 2-(((Z)-(1-(2-aminothiazol-4-yl)-2-(((2R,3S)-2-((5-(guanidinomethyl)-2H-tetrazol-2-yl)methyl)-4-oxo-1-sulfoazetidin-3-yl)amino)-2-oxoethylidene)amino)oxy)-2-methylpropanoic acid] | – | 4 µg/mL (≈ 6.96 µM) | 1 µg/mL (≈ 1.74 µM) |
| CC(C)(O/N=C(\C(=O)N[C@@H]1C(=O)N(S(=O)(=O)O)[C@@H]1Cn1cc(CO)nn1)c1csc(N)n1)C(=O)O [Example 47, 2-(((Z)-(1-(2-aminothiazol-4-yl)-2-(((2R,3S)-2-((4-(hydroxymethyl)-1H-1,2,3-triazol-1-yl)methyl)-4-oxo-1-sulfoazetidin-3-yl)amino)-2-oxoethylidene)amino)oxy)-2-methylpropanoic acid] | – | 5 µg/mL (≈ 9.39 µM) | 2 µg/mL (≈ 3.76 µM) |
| Nc1nc(/C(=N/OCC(=O)O)C(=O)N[C@@H]2C(=O)N(S(=O)(=O)O)[C@@H]2CN2CCOC2=O)cs1 [Example 21, 2-(((Z)-(1-(2-aminothiazol-4-yl)-2-oxo-2-(((3S,4R)-2-oxo-4-((2-oxooxazolidin-3-yl)methyl)-1-sulfoazetidin-3-yl)amino)ethylidene)amino)oxy)acetic acid] | – | 0.5 µg/mL (≈ 1.02 µM) | 0.25 µg/mL (≈ 0.508 µM) |
| N=C(NCc1cnn(C[C@@H]2[C@H](NC(=O)/C(=N\OC3(C(=O)O)CC3)c3csc(N)n3)C(=O)N2S(=O)(=O)O)n1)N1CC(CN)C1 [Example 127, 1-(((Z)-(2-(((2R,3S)-2-((4-((3-(aminomethyl)azetidine-1-carboximidamido)methyl)-2H-1,2,3-triazol-2-yl)methyl)-4-oxo-1-sulfoazetidin-3-yl)amino)-1-(2-aminothiazol-4-yl)-2-oxoethylidene)amino)oxy)cyclopropanecarboxylic acid] | – | 0.25 µg/mL (≈ 0.39 µM) | 0.25 µg/mL (≈ 0.39 µM) |
| CC(C)(CCN)NCc1cnn(C[C@@H]2[C@H](NC(=O)/C(=N\OC3(C(=O)O)CC3)c3csc(N)n3)C(=O)N2S(=O)(=O)O)n1 [Example 132, 1-(((Z)-(2-(((2R,3S)-2-((4-(((4-amino-2-methylbutan-2-yl)amino)methyl)-2H-1,2,3-triazol-2-yl)methyl)-4-oxo-1-sulfoazetidin-3-yl)amino)-1-(2-aminothiazol-4-yl)-2-oxoethylidene)amino)oxy)cyclopropanecarboxylic acid] | – | 1 µg/mL (≈ 1.63 µM) | 1 µg/mL (≈ 1.63 µM) |
| Cn1cnn(C[C@@H]2[C@H](NC(=O)/C(=N\OC(C)(C)C(=O)O)c3csc(N)n3)C(=O)N2S(=O)(=O)O)c1=O [Example 98, 2-(((Z)-(1-(2-aminothiazol-4-yl)-2-(((2R,3S)-2-((4-methyl-5-oxo-4,5-dihydro-1H-1,2,4-triazol-1-yl)methyl)-4-oxo-1-sulfoazetidin-3-yl)amino)-2-oxoethylidene)amino)oxy)-2-methylpropanoic acid] | – | 0.5 µg/mL (≈ 0.939 µM) | 2 µg/mL (≈ 3.76 µM) |
| CC(C)(O/N=C(\C(=O)N[C@@H]1C(=O)N(S(=O)(=O)O)[C@@H]1Cn1cnnc1)c1csc(N)n1)C(=O)O [Example 56, 2-(((Z)-(2-(((2R,3S)-2-((4H-1,2,4-triazol-4-yl)methyl)-4-oxo-1-sulfoazetidin-3-yl)amino)-1-(2-aminothiazol-4-yl)-2-oxoethylidene)amino)oxy)-2-methylpropanoic acid] | – | 16 µg/mL (≈ 31.8 µM) | 4 µg/mL (≈ 7.96 µM) |
| Cc1cnn(C[C@@H]2[C@H](NC(=O)/C(=N\OC(C)(C)C(=O)O)c3csc(N)n3)C(=O)N2S(=O)(=O)O)n1 [Example 55, 2-(((Z)-(1-(2-aminothiazol-4-yl)-2-(((2R,3S)-2-((4-methyl-2H-1,2,3-triazol-2-yl)methyl)-4-oxo-1-sulfoazetidin-3-yl)amino)-2-oxoethylidene)amino)oxy)-2-methylpropanoic acid] | – | 4 µg/mL (≈ 7.74 µM) | 16 µg/mL (≈ 31 µM) |
| CC(C)(O/N=C(\C(=O)N[C@@H]1C(=O)N(S(=O)(=O)O)[C@@H]1CN1CC[C@@H](NC(=N)N)C1=O)c1csc(N)n1)C(=O)O [Example 88, 2-(((Z)-(1-(2-aminothiazol-4-yl)-2-(((2R,3S)-2-(((R)-3-guanidino-2-oxopyrrolidin-1-yl)methyl)-4-oxo-1-sulfoazetidin-3-yl)amino)-2-oxoethylidene)amino)oxy)-2-methylpropanoic acid] | – | 4 µg/mL (≈ 6.95 µM) | 2 µg/mL (≈ 3.47 µM) |
| CC(C)(O/N=C(\C(=O)N[C@@H]1C(=O)N(S(=O)(=O)O)[C@@H]1Cn1ncc(COC(N)=O)n1)c1csc(N)n1)C(=O)O [Example 37, 2-(((Z)-(1-(2-aminothiazol-4-yl)-2-(((2R,3S)-2-((4-((carbamoyloxy)methyl)-2H-1,2,3-triazol-2-yl)methyl)-4-oxo-1-sulfoazetidin-3-yl)amino)-2-oxoethylidene)amino)oxy)-2-methylpropanoic acid] | – | 2 µg/mL (≈ 3.47 µM) | 2 µg/mL (≈ 3.47 µM) |
